In paper PMC4684357, “Comparative Evaluation of the Antimicrobial Activity of Different Antimicrobial Peptides against a Range of Pathogenic Bacteria” (PLoS ONE, 2015):
Like-named read-outs stand apart in the source and are kept apart here. Residues, ends and D or L forms follow the SMILES beside them.

Assays:
[1] = system: ATCC25922 ΔrfaF; type: cell-based, Escherichia coli; conditions: E. coli ATCC25922 ΔrfaF; CLSI; triplicates
Description: (§1) The Yersinia ruckeri strain was kindly provided by Prof. Kurt Buchmann, University of Copenhagen, Faculty of Health and Medical Sciences, and the Flavobacterium psychrophilum strain was kindly provided by Prof. Inger Dalsgaard, DTU, Denmark. BW25113 is the Escherichia coli wild-type strain, a derivative of the F^-,λ^- E. coli K12 strain BD792 which was used in generating the KEIO collection. E. coli ATCC25922 is a clinical isolate, serotype O6 and is often used as control strain in antimicrobial susceptibility testing. All strains were grown in Mueller-Hinton-II medium, except L. monocytogenes which was grown in BHI medium and F. psychrophilum which was grown in TYES medium (Tryptone yeast extract plus salts). Incubation took place aerobically at 37°C, except for Y. ruckeri and A. salmonicida, which were grown aerobically at RT (20°C), C. jejuni NCTC11168 which was grown under microaerophilic conditions at 42°C and F. psychrophilum 1947 which was grown under aerobic conditions at 15°C. All plates were incubated for 18–20 hours, except the F. psychrophilum plates, which were incubated for 72 hours.
(§2) The minimum inhibitory concentrations (MICs) of the AMPs were measured in 96-well microtiter plates according to the Clinical and Laboratory Standards Institute (CLSI, formerly National Committee for Clinical Laboratory Standards [NCCLS]). Briefly, liquid Mueller-Hinton-II medium containing increasing concentrations of AMPs is inoculated with a defined number of cells (approx. 10^5 CFUs/ml) in 96-well microtiter plates (polypropylene), whereas each plate also includes a positive growth control and a negative control (sterile control). After incubation, the MIC is determined by the lowest concentration showing no visible growth. All plates were incubated for 18–20 hours, except the F. psychrophilum plates which were incubated for 72 hours.
(§3) Construction of knock-out mutants of E. coli ATCC25922 were constructed using the λ-Red recombinase gene replacement system. Primers for amplification of the npt gene of pKD4 are listed in S1 Table. The correct double-crossover and recombination event was confirmed by primers listed in S1 Table and by sequencing. Finally, the kanamycin cassette was removed.

[2] = system: ATCC25922 ΔrfaC; type: cell-based, Escherichia coli; conditions: E. coli ATCC25922 ΔrfaC; CLSI; triplicates
Description: as §1, §2, §3

[3] = system: ATCC25922 ΔrfaG; type: cell-based, Escherichia coli; conditions: E. coli ATCC25922 ΔrfaG; CLSI; triplicates
Description: as §1, §2, §3

[4] = system: ATCC25922 ΔrfaE; type: cell-based, Escherichia coli; conditions: E. coli ATCC25922 ΔrfaE; CLSI; triplicates
Description: as §1, §2, §3

[5] = system: BW25113 wild-type; experiment: MIC in LPS backgrounds; type: cell-based, Escherichia coli; conditions: E. coli BW25113 wild-type; CLSI; triplicates
Description: as §1, §2

[6] = system: E. coli ATCC25922; type: cell-based, Escherichia coli
Description: as §1
All plates were incubated for 18–20 hours, except the F. psychrophilum plates which were incubated for 72 hours.
All the MIC measurements were carried out in duplicate.

[7] = system: BW25113 ΔrfaF; type: cell-based, Escherichia coli; conditions: E. coli BW25113 ΔrfaF; CLSI; triplicates
Description: as §1, §2

[8] = system: BW25113 ΔrfaE; type: cell-based, Escherichia coli; conditions: E. coli BW25113 ΔrfaE; CLSI; triplicates
Description: as §1, §2

[9] = system: BW25113 ΔrfaG; type: cell-based, Escherichia coli; conditions: E. coli BW25113 ΔrfaG; CLSI; triplicates
Description: as §1, §2

[10] = system: BW25113 ΔrfaC; type: cell-based, Escherichia coli; conditions: E. coli BW25113 ΔrfaC; CLSI; triplicates
Description: as §1, §2

[11] = system: E. coli ATCC25922
Method: as §2, with “hours. […]” for “hours.”

[12] = target: T1, proteinase K (Parengyodontium album, UniProt P06873); experiment: Protease stability: MIC after incubation with proteinase K; type: in vitro ADME; conditions: for Antimicrobial Activity MIC: proteinase K, protease:AMP 1:100 (w/w), 100 mM Tris-HCl pH 7.5, 37°C, test strain E. coli ATCC25922, triplicates
T1 construct: purchased NEB P8107S
Method: as §2
(§4) AMPs were heated at 70°C or 90° for 5, 15 or 30 minutes. An untreated control, which was kept at RT, was used as a control. After incubation at 70°C or 90°C, the minimum inhibitory concentrations (MICs) of the peptides were measured in 96-well microtiter plates according the Clinical and Laboratory Standards Institute (CLSI, formerly National Committee for Clinical Laboratory Standards [NCCLS]) […] After incubation, the samples were cooked for 10 minutes at 90°C to inactivate the protease. Afterwards, the antimicrobial activity was determined by measuring the minimal inhibitory concentration (see Antimicrobial susceptibility testing)). E. coli ATCC25922 was used as a test strain.

[13] = target: T2, trypsin (Bos taurus, UniProt P00760); experiment: Protease stability: MIC after incubation with trypsin; type: in vitro ADME; conditions: for Antimicrobial Activity MIC: trypsin, protease:AMP 1:100 (w/w), trypsin-ultra reaction buffer, 37°C, test strain E. coli ATCC25922, triplicates
T2 construct: purchased NEB P8101
T2 sequence (P00760 24-246): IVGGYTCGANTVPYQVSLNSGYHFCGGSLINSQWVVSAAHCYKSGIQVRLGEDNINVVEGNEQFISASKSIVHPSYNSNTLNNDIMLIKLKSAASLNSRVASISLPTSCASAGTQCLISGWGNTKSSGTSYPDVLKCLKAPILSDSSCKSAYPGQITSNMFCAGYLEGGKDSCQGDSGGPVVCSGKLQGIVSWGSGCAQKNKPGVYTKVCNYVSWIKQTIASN
Method: as §2, §4

T1 sequence (P06873 106-384): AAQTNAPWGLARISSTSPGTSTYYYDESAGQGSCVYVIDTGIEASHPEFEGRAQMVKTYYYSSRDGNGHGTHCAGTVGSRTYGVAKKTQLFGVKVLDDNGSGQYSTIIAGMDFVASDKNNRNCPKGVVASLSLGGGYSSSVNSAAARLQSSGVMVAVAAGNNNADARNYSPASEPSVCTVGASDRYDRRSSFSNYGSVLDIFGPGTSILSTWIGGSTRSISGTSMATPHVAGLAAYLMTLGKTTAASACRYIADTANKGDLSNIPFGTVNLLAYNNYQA

| SMILES | Antimicrobial Activity MIC [1] [µg/mL] | Antimicrobial Activity MIC [2] [µg/mL] | Antimicrobial Activity MIC [3] [µg/mL] | Antimicrobial Activity MIC [4] [µg/mL] | Antimicrobial Activity MIC [5] [µg/mL] | Antimicrobial Activity MIC [6] [µg/mL] | Antimicrobial Activity MIC [7] [µg/mL] | Antimicrobial Activity MIC [8] [µg/mL] | Antimicrobial Activity MIC [9] [µg/mL] | Antimicrobial Activity MIC [10] [µg/mL] | further results |
| --- | --- | --- | --- | --- | --- | --- | --- | --- | --- | --- | --- |
| CC[C@H](C)[C@H](NC(=O)[C@H](CCCCN)NC(=O)[C@H](CCCCN)NC(=O)[C@H](CC(C)C)NC(=O)[C@H](CCCCN)NC(=O)[C@H](CCC(=O)O)NC(=O)[C@H](CCCCN)NC(=O)[C@@H](NC(=O)[C@H](CCCCN)NC(=O)[C@H](CC(N)=O)NC(=O)[C@H](CCCNC(=N)N)NC(=O)[C@H](Cc1ccccc1)NC(=O)[C@H](CCCCN)NC(=O)[C@H](CCCNC(=N)N)NC(=O)[C@H](CC(C)C)NC(=O)[C@H](CCCNC(=N)N)NC(=O)[C@H](CCCCN)NC(=O)[C@H](CCCNC(=N)N)NC(=O)[C@H](CC(C)C)NC(=O)CN)[C@@H](C)CC)C(=O)NCC(=O)N[C@@H](CCC(N)=O)C(=O)N[C@@H](CCCCN)C(=O)N[C@H](C(=O)N[C@@H](CCC(N)=O)C(=O)NCC(=O)N[C@@H](CC(C)C)C(=O)N[C@@H](CC(C)C)C(=O)N1CCC[C@H]1C(=O)N[C@@H](CCCCN)C(=O)N[C@@H](CC(C)C)C(=O)N[C@@H](C)C(=O)N1CCC[C@H]1C(=O)N[C@@H](CCCNC(=N)N)C(=O)N[C@H](C(=O)N[C@@H](CC(=O)O)C(=O)N[C@@H](Cc1ccc(O)cc1)C(=O)O)[C@@H](C)O)[C@@H](C)CC [Cap18] (H-GLRKRLRKFRNKIKEKLKKIGQKIQGLLPKLAPRTDY-OH) | 2 | 2 | 2 | 2 | 4 to 8 | 4 | 4 | 4 | 4 | 4 | Antimicrobial Activity MIC [11]: 8 µg/mL |
| CC[C@H](C)[C@H](NC(=O)[C@H](CCCCN)NC(=O)[C@H](Cc1c[nH]c2ccccc12)NC(=O)[C@H](CCCNC(=N)N)NC(=O)[C@@H](N)CCCNC(=N)N)C(=O)N[C@H](C(=O)N[C@H](C(=O)N[C@H](C(=O)N[C@@H](CCCNC(=N)N)C(=O)N[C@@H](Cc1c[nH]c2ccccc12)C(=O)N[C@@H](CCCNC(=N)N)C(=O)N[C@@H](CCCNC(=N)N)C(N)=O)[C@@H](C)CC)C(C)C)C(C)C [Sub5-NH2] (H-RRWKIVVIRWRR-NH2) | 1 | 1 | 1 | 1 | 4 to 8 | 4 | 2 | 2 | 2 | 2 | – |
| CNC(C)C1CCC(N)C(OC2C(N)CC(N)C(OC3OCC(C)(O)C(NC)C3O)C2O)O1 (centres unmarked) [Gentamicin] | – | – | – | – | – | – | – | – | – | – | antimicrobial activity after protease (in words) ([12]; proteinase K for 30 minutes, control antibiotic): retained its full antimicrobial activity; Antimicrobial Activity MIC ([12]; 0 min): 1 µg/mL; Antimicrobial Activity MIC ([12]; 0.5 min, then 10 min 90°C): 1 µg/mL; Antimicrobial Activity MIC ([12]; 2 min, then 10 min 90°C): 1 µg/mL; Antimicrobial Activity MIC ([12]; 5 min, then 10 min 90°C): 1 µg/mL; Antimicrobial Activity MIC ([12]; 15 min, then 10 min 90°C): 1 µg/mL; Antimicrobial Activity MIC ([12]; 30 min, then 10 min 90°C): 1 µg/mL; antimicrobial activity after protease (in words) ([13]; trypsin for 30 minutes, control antibiotic): retained its full antimicrobial activity; Antimicrobial Activity MIC ([13]; 0 min): 1 µg/mL; Antimicrobial Activity MIC ([13]; 0.5 min, then 10 min 90°C): 1 µg/mL; Antimicrobial Activity MIC ([13]; 2 min, then 10 min 90°C): 1 µg/mL; Antimicrobial Activity MIC ([13]; 5 min, then 10 min 90°C): 1 µg/mL; Antimicrobial Activity MIC ([13]; 15 min, then 10 min 90°C): 1 µg/mL; Antimicrobial Activity MIC ([13]; 30 min, then 10 min 90°C): 1 µg/mL |
